System: any cardiac event, including ischemic stroke, or death
Assay: Bayesian hierarchical (Cox proportional hazards, Models 1 and 2) analysis of five secondary prevention studies (CARE, LIPID, PLAC I, PLAC II, REGRESS) for synergy between pravastatin and aspirin
Type: in vivo, human
Conditions: for posterior mean of the coefficient γT: Model 1, logarithmic scale, relative to placebo (γplacebo=0)
Experimental: In this study 40 mg pravastatin and 81 mg aspirin and higher were employed.
The primary endpoint was (i) any cardiac event, including ischemic stroke, or death. Secondary endpoints were individual components of the primary endpoint: (ii) any cardiac event, excluding stroke, (iii) any myocardial infarction, (iv) ischemic stroke, and (v) death. Analyses of these secondary endpoints as opposed to the primary endpoint are subject to greater uncertainty because the numbers of events are smaller. Therefore, conclusions for the secondary endpoints are likely to be less compelling.
The five studies available for addressing the synergy between pravastatin and aspirin for secondary prevention are listed and described in Table 1. Patients in all five studies were randomized to pravastatin vs placebo. All patients in all five studies are included in the primary analysis.
These may be due to random variability or to differences in patient populations. To take these differences into account, the role of patient characteristics was modeled, namely, the following covariates were considered: age, gender, smoking status, existence of coronary artery disease, and baseline values of LDL and HDL cholesterols, triglycerides, and diastolic and systolic blood pressures. In addition, the studies were conducted under different circumstances and by different investigators and even in different countries. Therefore, there may be additional study-specific differences that cannot be explained by differences in measured patient covariates. To allow for the possibility that treatment effects depend on study even after accounting for patient characteristics, Bayesian hierarchical modeling was used in which the study is one level of experimental unit and patient-within-study is a second level.
A brief introduction to Bayesian hierarchical modeling and a description of standard Bayesian hierarchical Cox proportional hazards model (Model 1) are set out below. An extension of the standard model that allows for treatment-specific time-varying hazards (Model 2) is also described. In addition, the sensitivity of the conclusions to the prior distribution of the parameter that regulates the extent of pooling of the various studies is addressed.
Model 1: Bayesian Hierarchical Analysis Using Cox Proportional Hazards Model
The Cox proportional hazards model takes hazard H to be of the form
where Z is the set of patient-specific covariates (listed above), β is the vector of regression coefficients and λ0(t) is the baseline hazard function. Treatment and study are considered separately from covariates Z, as follows: […]
Assessing the probability of synergy is straightforward in Model 1 when using Markov chain Monte Carlo (MCMC) methods. […] During each iteration of MCMC, this synergy condition is assessed. […]

CC(=O)Oc1ccccc1C(=O)O [aspirin, acetylsalicylic acid]
posterior mean of the coefficient γT (primary endpoint (All events)): −0.0022
performance in comparison with placebo alone (primary endpoint (All events), Models 1 and 2): essentially the same
estimated event rate (hazard) compared among treatment arms (stroke, Model 2, year 1): lowest estimated event rate

CC[C@H](C)C(=O)O[C@H]1C[C@H](O)C=C2C=C[C@H](C)[C@H](CC[C@@H](O)C[C@@H](O)CC(=O)O)[C@H]21 [pravastatin]
posterior mean of the coefficient γT (primary endpoint (All events)): −0.0985
